Source: patent US20180235860A1, “USE OF DIETHANOLAMMONIUM DERIVATIVES AS SKIN MOISTURIZER” (L'OREAL, priority 2015, published 2018)

Test system: isolated stratum corneum (SC)
Experiment: Moisturizing potential on isolated stratum corneum by measurement with a Corneometer (dielectric capacitance)
Conditions: for Mean DHCMi corr. active agent: vehicle-corrected; for Dielectric capacitance of the stratum corneum / moisturizing effect in comparison with glycerol at the same concentration: 5% by weight, result in words
Procedure: B): Evaluation of the Moisturizing Potential on Isolated Stratum Corneum by Measurement with a Corneometer
A test was performed to evaluate the moisturizing potential of the compounds of the invention formulated in an aqueous solution to an amount of 5% by weight relative to the total weight of the composition.
The technique makes it possible to measure the dielectric capacitance of stratum corneum (SC), which depends on the mean dielectric permittivity value of the tissue. The dielectric permittivity varies greatly with the amount of water contained in the SC.
The SC samples are conditioned at 75% relative humidity and at 25° C. before/during the measurements and the treatment. The capacitance measurement is performed using a Corneometer™ (Courage & Khazaka, Germany).
The test compound, compound 2 according to the invention or a moisturizing active agent such as glycerol, is dissolved in a water/n-propanol mixture (80/20) and the solution is deposited onto the SC at a rate of 10 μl/cm^2 followed by air-drying for a total duration of 1 hour 30 minutes.
Measurement is taken at T0, before the treatment, and a measurement Ttreat is taken after total drying of the treatment.
Each treatment is systematically compared with its control (vehicle) and with its T0.
Using at least two different batches of SC, four to five SC samples are measured per treatment.
The variation in the corneometer signal (HCM) after treatment is calculated first for each SC sample: DHCMi=HCMi(Ttreat)−HCMi(T0). The mean of the DHCMi(vehicle) variations is then calculated for the control samples (treated with the vehicle); this mean value is subtracted from all the DHCMi(active agent) variations to correct the systematic bias.
The following is measured for each sample i: • For the vehicle (control): DHCMi(veh)=HCMiveh(Ttreat)−HCMiveh(T0) • For the active agent: DHCMiactive agent=HCMiactive agent(Ttreat)−HCMiactive agent(T0)
To correct the systematic bias associated with the vehicle, the corrected value DHCMicorr. active agent is considered for the active agent according to: DHCMicorr. active agent−DHCMiactive agent−M
in which M corresponds to the mean of the DHCMi(veh) variations observed on the n control samples:
The mean DHCMi corr. active agent values, and also the associated standard deviations that were obtained, are reported in the table below for compound 2 tested at 5%, in comparison with glycerol at 5%: […]

[1] = 5% by weight in water/n-propanol mixture (80/20), 10 μl/cm2 on SC, 75% RH, 25° C., table for compound 2 vs glycerol
[2] = 5% by weight in water/n-propanol mixture, table for compounds 13 and 14 vs glycerol

| Structure (SMILES) | Mean DHCMi corr. active agent [1] | Mean DHCMi corr. active agent [2] | Dielectric capacitance of the stratum corneum / moisturizing effect in comparison with glycerol at the same concentration |
| --- | --- | --- | --- |
| OCC(O)CO [Glycerol, glycerol, reference compound] | 13.8 | 11 |  |
| C[N+](C)(CCO)CCO.[Cl-] [Compound 2] | 25.9 |  | much better |
| CC(O)C(=O)[O-].C[N+](C)(CCO)CCO [Compound 13] |  | 14 | better |
